Source: a melting point compilation (Tetko et al.)
Peptide text beside a SMILES is read from it.

`O=S1(=O)c2cccc3cccc(c23)N1CCCCCl` gave a melting point of 38 to 40 °C.

With `CCP(=S)(CC)CC` the melting point was 95 °C.

With `Cc1ccc(C)c2c(=O)c(=O)c12` the melting point was 133 °C.

Compound `O=C1[C@@H](Oc2ccccc2)[C@@H](c2ccccc2)N1[C@@H](Sc1ccccc1)c1ccccc1` has a melting point of 194 °C.

For `CC(O)CN(CC(C)O)CC(C)O` (stereo not drawn), the melting point was 48 to 52 °C.

Compound `COC(=O)c1c(C(F)F)nc(C(F)(F)F)c(C2=NCCS2)c1CC(C)C` has a melting point of 78 °C.

For `Cc1cc(Cl)ccc1NC(=S)N(C)C`, the melting point was 175 °C.

In the case of `CCOC(=O)C(C#N)=Cc1ccccc1Cl`, the melting point is reported as 88 °C.

`NC(=O)C=CC(N)=O` showed a melting point of 276 °C.

Work on `CCC[C@H]1CCC[C@H]1C` (relative stereo) yielded a melting point of -104 °C.

`COC(=O)[C@@H]1[C@H](c2ccccc2)C(C#N)=C(C(SC)SC)[C@@]1(O)c1ccccc1` showed a melting point of 164 to 165 °C.

In the case of `NNc1cc(Cl)c(C(F)(F)F)cc1[N+](=O)[O-]`, the melting point is reported as 140 to 145 °C.

With `Nc1nnc(S)s1` the melting point was 243 to 244 °C.

Work on `O=C1C(C(O)c2ccccc2Cl)C(C(F)(F)F)=NN1c1ccccc1` (stereo not drawn) yielded a melting point of 251 °C.

With `CC1(C)O[C@@H]2[C@H](O1)[C@@H]1C[C@H]2NC1=O` the melting point was 150 to 152 °C.

In the case of `CC1C(=O)NC(=O)C1(C)C` (stereo not drawn), the melting point is reported as 117 to 122 °C.

With `CC12C=CC(=O)C=C1C(F)CC1C2C(O)CC2(C)C1CCC2(O)C(=O)CO` (stereo not drawn) the melting point was 210 °C.

Compound `CCc1cc(CC)cc(CC)c1` has a melting point of -66.5 °C.

`ClCc1nnc(-c2ccc(Cl)cc2)o1` showed a melting point of 81 to 85 °C.

For `Nc1ccc(N)c2c1C(=O)c1c(N)ccc(N)c1C2=O`, the melting point was 285 °C.

In the case of `C/C=C/C#N`, the melting point is reported as -51.5 °C.

Compound `N#CCc1nc(-c2ccc([N+](=O)[O-])cc2)cs1` has a melting point of 147 to 148 °C.

With `Cc1cccc(C)c1NC(=O)C1CCCCN1C` (stereo not drawn) the melting point was 150 °C.

Compound `CCSC(=O)Cl` has a melting point of -60 °C.

For `Cc1cc(C)c(N)cc1C`, the melting point was 68 °C.

With `NNC(=O)c1cc(Cl)cc(Cl)c1` the melting point was 206 °C.

In the case of `CCCCCCCCCCCC(O)CC` (stereo not drawn), the melting point is reported as 31.5 °C.

Work on `C[Si](C)(C)C1=CC2(CCCCC2)CC1=O` yielded a melting point of 56 °C.

With `Cc1cc(C)c(N)c(C(=O)O)c1` the melting point was 192 °C.

`COP(=S)(OC)SCc1nc(N)nc(N)n1` showed a melting point of 165 °C.

With `Cc1nn(-c2ccccc2)c(C)c1C=O` the melting point was 125 to 128 °C.

With `OCC1OC(O)C(F)C(O)C1O` (stereo not drawn) the melting point was 170 to 176 °C.

With `CCC1C(C#N)=C(N)Oc2c1c(=O)oc1ccccc21` (stereo not drawn) the melting point was 233 to 237 °C.

With `Clc1ccc(-n2cccc2)cc1` the melting point was 88 to 91 °C.

For `O=C(O)Cc1ccccc1I`, the melting point was 116 °C.

With `N#Cc1ccccc1S(=O)(=O)Cl` the melting point was 69 to 70 °C.

In the case of `Cc1nn(Cc2cccc(C(=O)O)c2)c(C)c1Br`, the melting point is reported as 224 to 226 °C.

In the case of `COC(=O)c1cc(OC)c(O)c(OC)c1`, the melting point is reported as 106 °C.

In the case of `O=C1/C(=C/c2ccc([N+](=O)[O-])cc2)SC(=S)N1CN1CCCCC1`, the melting point is reported as 160 °C.

For `CC(C)(C)NC(=O)[C@@H]1CC2CCCCC2CN1` (stereo partly drawn), the melting point was 115 to 117 °C.

`CC(=O)C(c1ccccc1)c1ccc(C(F)(F)F)cc1[N+](=O)[O-]` (stereo not drawn) showed a melting point of 91 °C.

With `Ic1cn[nH]c1` the melting point was 109 °C.

Compound `Cn1c2c(c3ccccc31)CCCC2` has a melting point of 52 °C.

In the case of `CCCCCc1ccc(NC(=O)c2ccc(C)cc2)cc1`, the melting point is reported as 129 °C.

Compound `C=C(C)CCCCCCCCCCCCCCC` has a melting point of 9 °C.

Work on `FC(F)(F)C(F)(F)C(Cl)(Cl)Cl` yielded a melting point of -80 °C.

With `CC(=O)Nc1ccc(Cl)cc1Cl` the melting point was 147 °C.

With `CCN(CC)C(=O)C(Cl)=C(C)OP(=O)(OC)OC` the melting point was -45 °C.

Work on `O=C(O)Cc1ccc(CC(=O)O)cc1` yielded a melting point of 254 °C.

Work on `O=C(O)c1cc(Br)ccc1O` yielded a melting point of 170 °C.

With `O=C(c1ccccc1)c1ccc(Cl)c([N+](=O)[O-])c1` the melting point was 105 °C.

`Cc1cc(O)c(C(=O)O)c(O)c1` gave a melting point of 176 °C.

For `CCC(Br)(CC)C(N)=O`, the melting point was 67 °C.

Compound `CC(=O)Nc1cc(NS(=O)(=O)C(F)(F)F)c(C)cc1C` has a melting point of 184 °C.

Compound `O=C(Nc1cc(C(F)(F)F)cc(C(F)(F)F)c1)c1cncc(Cl)n1` has a melting point of 133 °C.

In the case of `CC(C)(C)NCC(O)c1ccc(O)c(CO)c1` (stereo not drawn), the melting point is reported as 154 °C.

For `CCOC(=O)c1[nH]c(C)c(C(C)=O)c1C`, the melting point was 146 to 147 °C.

`O=Cc1ccc(C#Cc2ccccc2)s1` gave a melting point of 91 °C.

Work on `CCOCN(C(=O)CCl)c1c(C)cccc1CC` yielded a melting point of 10.6 °C.

`O=C(c1ccccc1)c1coc(-c2ccc(Cl)cc2)c1S(=O)(=O)c1ccccc1` showed a melting point of 96 to 97 °C.

In the case of `O=S(=O)(Cl)c1ccc(S(=O)(=O)N2CCOCC2)cc1`, the melting point is reported as 150 to 152 °C.

In the case of `Cc1ccc(N)cc1NS(C)(=O)=O`, the melting point is reported as 170 to 172 °C.

`Brc1cccc(COc2ccccc2)c1` gave a melting point of 38 to 39 °C.

`Cc1c(Br)c(Br)c(O)c(Br)c1Br` gave a melting point of 195 to 200 °C.

In the case of `Cc1nn(-c2ccccc2)c2oc3ncccc3c(=O)c12`, the melting point is reported as 223 to 224 °C.

In the case of `Cc1onc(-c2c(Cl)cccc2Cl)c1C(=O)NN`, the melting point is reported as 150 to 152 °C.

With `COc1ccc([N+](=O)[O-])cc1` the melting point was 54 °C.

With `CC1CCCC(C)(C)C1=O` (stereo not drawn) the melting point was -31.8 °C.

For `Nc1ccc(C(=O)c2ccccc2)cc1N`, the melting point was 117 °C.

Work on `CCC1=CN(S(=O)(=O)c2ccc(C)cc2)C[C@@H]1CCc1cccc(C(=O)OC)c1` yielded a melting point of 67.5 °C.

Compound `C1=CC2OC1c1ccccc12` has a melting point of 53 to 58 °C.

Compound `Nc1ccc(-c2ccc(N)cc2Cl)c(Cl)c1` has a melting point of 165 °C.

Work on `N[C@@H](CC(=O)O)C(=O)N[C@@H](Cc1ccccc1)C(=O)O` (H-Asp-Phe-OH) yielded a melting point of 236 to 239 °C.

`Cc1ccccc1NC(=O)c1ccccc1` gave a melting point of 146 °C.

Work on `O=[N+]([O-])c1ccc2[nH]c(=S)[nH]c2c1` yielded a melting point of 275 °C.

Work on `CC(C)(C)OC(=O)N1CCC[C@@H]1C(=O)O` yielded a melting point of 133 to 135 °C.

For `CC(=O)c1c2ccccc2cc2ccccc12`, the melting point was 74 °C.

In the case of `O=C(CCl)NCO`, the melting point is reported as 100 °C.

Work on `Cc1cc(C(=O)Nc2ccc(Cl)cc2)no1` yielded a melting point of 155 to 157 °C.

`Cc1c(C)c([N+](=O)[O-])c(C)c(C)c1[N+](=O)[O-]` gave a melting point of 212 °C.

Work on `Fc1c(F)c(F)c(P(c2ccccc2)c2c(F)c(F)c(F)c(F)c2F)c(F)c1F` yielded a melting point of 61.5 °C.

Compound `Cc1ccccc1Oc1cccnn1` has a melting point of 78 °C.

Compound `CSc1nc(N)c(C(N)=O)s1` has a melting point of 199 to 200 °C.

In the case of `COc1ccc(C(=O)Cn2cc([N+](=O)[O-])nc2C)cc1`, the melting point is reported as 250 to 252 °C.

Work on `NC(=NO)c1c(Cl)cccc1Cl` yielded a melting point of 163 to 166 °C.

Compound `CC1=C(C(=O)OCc2ccccc2)C(c2ccccc2)N(C)C(=O)N1C` (stereo not drawn) has a melting point of 86 °C.

`CC(O)C(NC(=O)OC(C)(C)C)C(=O)O` (stereo not drawn) showed a melting point of 79 °C.

`C=C1C(=O)C2(C)CCC1C2(C)C` (stereo not drawn) showed a melting point of 45 °C.

With `Cc1ccc2c(Cl)cc(Cl)c(O)c2n1` the melting point was 114 °C.

In the case of `O=C(c1noc(-c2ccc(Cl)cc2)c1S(=O)(=O)c1ccccc1)c1cccc2ccccc12`, the melting point is reported as 169 °C.

For `COC(=O)C1=C(C)NC(=O)NC1c1ccc(Cl)cc1` (stereo not drawn), the melting point was 172 °C.

`Cc1cnc(CO)c(C)c1[N+](=O)[O-]` gave a melting point of 67 °C.

In the case of `CC[C@H](C)[C@H](NC(=O)OCc1ccccc1)C(=O)O`, the melting point is reported as 52 to 54 °C.

For `O=C1c2ccccc2C(=O)N1CCCCCBr`, the melting point was 60 °C.

For `CCc1ccc(C(=O)NN(C(=O)c2cc(C)cc(C)c2)C(C)(C)C)cc1`, the melting point was 191 °C.

For `ClCCN(CCCl)c1ccc2ccccc2c1`, the melting point was 55 °C.

With `CC(C)(C)OC(=O)N1CCN(c2cc(C(=O)O)ccn2)CC1` the melting point was 174 to 176 °C.

`CN(C)C(=O)OC1N=C(c2ccccc2)c2cc(Cl)ccc2N(C)C1=O` (stereo not drawn) showed a melting point of 174 °C.

`O=C1OC(=O)c2ncccc21` showed a melting point of 134 to 138 °C.

`O=C(Cl)c1cccc(F)c1` gave a melting point of -30 °C.

`OC[C@@H](O)COCc1ccccc1` gave a melting point of 24 to 27 °C.

`Cc1cccnc1NC(=O)C(F)(F)C(F)(F)C(F)(F)C(F)(F)C(F)(F)C(F)(F)C(F)(F)C(F)(F)F` showed a melting point of 161 °C.

Work on `Cc1cccc2cccc(C)c12` yielded a melting point of 65 °C.

`O=C(c1cccs1)c1noc(-c2ccc([N+](=O)[O-])cc2)c1S(=O)(=O)c1ccccc1` showed a melting point of 139 °C.

`CCCCCCCCOc1ccc(NC(=O)c2ccc(C)cc2)cc1` showed a melting point of 140 to 142 °C.

`COc1ccc(C(=O)O)cc1[N+](=O)[O-]` gave a melting point of 191 to 194 °C.

Compound `O=C(CBr)c1ccc(Oc2ccccc2)cc1` has a melting point of 49 to 50 °C.

`N#CC#CC#N` gave a melting point of 20.5 °C.

For `FC(F)(F)C(F)(Cl)C(F)(Cl)C(F)(F)F` (stereo not drawn), the melting point was -68 °C.

`Cc1ccc(C(N)=NO)cc1` showed a melting point of 136 to 137 °C.

For `Cc1cc(Cl)cc(C=O)c1O`, the melting point was 67 to 68 °C.

In the case of `NC(=O)c1cccc(Cl)c1Cl`, the melting point is reported as 170 to 172 °C.

Compound `CNC(=O)Oc1ccc2c(c1)C1(C)CCN(C)OC1N2C` (stereo not drawn) has a melting point of 129 °C.

With `O=[N+]([O-])c1cccc(CS(=O)(=O)Cl)c1` the melting point was 99 °C.

In the case of `N#CCCNc1ccccc1`, the melting point is reported as 52.5 °C.

For `N#CC(=CN)S(=O)(=O)c1ccc(Cl)cc1`, the melting point was 213 to 214 °C.

Work on `CC1C=CCC1` (stereo not drawn) yielded a melting point of -127 °C.

Work on `CC(C)(C)OC(=O)NC(C)(C)C(=O)O` yielded a melting point of 117 to 121 °C.

`CC(=O)OC1OC(COC(=O)c2ccccc2)C(OC(=O)c2ccccc2)C1OC(=O)c1ccccc1` (stereo not drawn) gave a melting point of 128 to 130 °C.

With `Nc1cc(F)c(F)c(Br)c1` the melting point was 68 °C.

`O=C(NC(NC(=O)c1ccccc1)c1ccccc1OCc1ccccc1Cl)c1ccccc1` gave a melting point of 241 to 243 °C.

Work on `Cc1nn(C)c2ncc(C(N)=O)c(Cl)c12` yielded a melting point of 275 °C.

`OC(CCN1CCCCC1)(c1ccccc1)C1CC2C=CC1C2` (stereo not drawn) showed a melting point of 114 °C.

For `CN(C)c1ccc(C=CC(=O)c2ccccc2)cc1`, the melting point was 114 °C.

With `O=C(OCC(=O)N1CCCCCC1)c1ccccc1` the melting point was 108 °C.

Compound `O=[N+]([O-])c1cccc(-c2nnc3n2NC(c2ccccc2)S3)c1` (stereo not drawn) has a melting point of 205 °C.

`CC(C)OC(=O)C1(S(=O)(=O)c2ccc([N+](=O)[O-])cc2)CCCCCC1` gave a melting point of 83.5 °C.

For `CCOC(=O)C1C(C)=NN=C1N` (stereo not drawn), the melting point was 54 to 56 °C.
